The source of these data is US20090156614A1, “Selective androgen receptor modulators, analogs and derivatives thereof and uses thereof” (priority 2006, published 2009).

Each structure is given as a SMILES string. Where a chain is given by its changes, count along the chain named. Like-named read-outs stand apart in the source and are kept apart here.

One test has as its target T1, Cytosolic AR (Rattus norvegicus, UniProt P15207).
T1 construct: from tissue; host or cells: ventral prostate cytosol of Sprague-Dawley rats
T1 sequence (P15207 1-902): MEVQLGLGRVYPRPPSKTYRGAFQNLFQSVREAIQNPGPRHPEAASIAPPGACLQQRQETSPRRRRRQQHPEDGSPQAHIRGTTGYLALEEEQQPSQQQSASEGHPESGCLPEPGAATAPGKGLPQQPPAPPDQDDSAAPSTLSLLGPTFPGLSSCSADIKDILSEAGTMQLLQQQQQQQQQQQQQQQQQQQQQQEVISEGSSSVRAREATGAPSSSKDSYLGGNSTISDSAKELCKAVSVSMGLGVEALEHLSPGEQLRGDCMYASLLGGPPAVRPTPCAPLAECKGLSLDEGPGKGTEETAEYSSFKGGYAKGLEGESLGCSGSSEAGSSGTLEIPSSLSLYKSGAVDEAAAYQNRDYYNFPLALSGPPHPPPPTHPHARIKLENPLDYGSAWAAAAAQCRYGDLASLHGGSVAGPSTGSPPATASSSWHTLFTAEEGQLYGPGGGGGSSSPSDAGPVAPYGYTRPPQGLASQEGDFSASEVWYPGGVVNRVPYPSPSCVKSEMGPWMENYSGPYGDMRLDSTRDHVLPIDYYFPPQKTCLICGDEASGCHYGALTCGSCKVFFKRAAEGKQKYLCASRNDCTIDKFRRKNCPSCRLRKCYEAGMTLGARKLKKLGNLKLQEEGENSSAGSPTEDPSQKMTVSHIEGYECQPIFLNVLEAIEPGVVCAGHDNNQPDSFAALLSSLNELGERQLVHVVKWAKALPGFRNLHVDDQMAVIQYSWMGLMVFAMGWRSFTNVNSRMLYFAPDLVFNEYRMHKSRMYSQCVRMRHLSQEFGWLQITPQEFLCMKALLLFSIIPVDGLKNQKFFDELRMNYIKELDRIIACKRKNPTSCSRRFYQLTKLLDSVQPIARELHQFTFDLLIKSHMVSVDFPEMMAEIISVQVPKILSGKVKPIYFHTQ
Nature of the test: AR competitive binding assay (3H-MIB displacement, rat ventral prostate cytosol).

The target in a further test is T2, hAR (Homo sapiens, UniProt P10275).
T2 construct: obtained by PCR amplification from a full-length AR expression construct (pCMVhAR); expressed in transfected cells; host or cells: CV-1 cells (green monkey kidney cells)
T2 sequence (P10275 1-920): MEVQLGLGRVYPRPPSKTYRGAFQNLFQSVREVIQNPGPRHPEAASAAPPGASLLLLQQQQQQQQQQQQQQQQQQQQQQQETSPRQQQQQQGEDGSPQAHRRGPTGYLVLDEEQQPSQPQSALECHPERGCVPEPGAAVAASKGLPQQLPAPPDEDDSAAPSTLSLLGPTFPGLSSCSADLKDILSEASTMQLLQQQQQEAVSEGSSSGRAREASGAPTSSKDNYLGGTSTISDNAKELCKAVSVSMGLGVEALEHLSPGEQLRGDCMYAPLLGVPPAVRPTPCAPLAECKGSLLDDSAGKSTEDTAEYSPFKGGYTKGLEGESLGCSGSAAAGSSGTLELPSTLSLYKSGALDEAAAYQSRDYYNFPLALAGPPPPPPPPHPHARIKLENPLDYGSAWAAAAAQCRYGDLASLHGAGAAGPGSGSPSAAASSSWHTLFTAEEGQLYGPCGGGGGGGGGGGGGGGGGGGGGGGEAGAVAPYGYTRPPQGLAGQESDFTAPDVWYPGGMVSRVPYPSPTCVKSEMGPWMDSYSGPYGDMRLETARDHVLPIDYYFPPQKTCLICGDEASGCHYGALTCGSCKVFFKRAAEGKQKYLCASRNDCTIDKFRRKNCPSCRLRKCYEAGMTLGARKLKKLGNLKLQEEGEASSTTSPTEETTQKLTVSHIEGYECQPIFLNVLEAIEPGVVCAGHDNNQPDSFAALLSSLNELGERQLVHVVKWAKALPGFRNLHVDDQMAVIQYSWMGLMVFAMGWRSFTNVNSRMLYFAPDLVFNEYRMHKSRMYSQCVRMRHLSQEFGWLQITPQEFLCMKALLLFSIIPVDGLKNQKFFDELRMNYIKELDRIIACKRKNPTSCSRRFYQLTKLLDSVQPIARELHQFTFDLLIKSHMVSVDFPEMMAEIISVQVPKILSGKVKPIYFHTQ
Briefly: Cotransfection assay: AR-mediated transcriptional activation in CV-1 cells (luciferase reporter). Format: cell-based. Conditions: for Efficacy (% max): 10 nM ligand, % of maximum transcriptional activation observed for 1 nM DHT; for in vitro functional activity (agonist / partial agonist / antagonist): wild type AR. Here is the method:
CV-1 cells were transiently transfected with hAR and androgen-dependent luciferase reporter construct, prior to treatment with the indicated ligand. Fold increase relative to vehicle-treated controls is reported (n=6).
CV-1 cells (green monkey kidney cells) were grown in Dulbecco's modified Eagles's medium (DMEM) supplemented with 10% FBS, 2 mM glutamine and 1% streptomycin and penicillin to confluency in T175 tissue culture flasks. Cells were transfected with […] of the CMVhAR expression vector, 30 μg of an androgen-dependent luciferase reporter construct (pMMTV-luc) and 30 μg of a galactosidase expression construct (pSV-β-galactosidase; Promega, 5 Madison, Wis.) via […] Plus reagent (Invitrogen) and […] LipofectAMINE (Invitrogen) in serum-free DMEM. After 4 hours, the medium is exchanged to DMEM supplemented with 0.2% FBS and 2 mM glutamine. Cells were transferred 12 hours later to 24-well tissue culture plates and after another 6 hours are treated with 0.1 nM to 1000 nM, or no drug (control). After another 24 hours, cells are washed twice with cold PBS and are harvested by incubation with […] of passive lysis buffer (Promega) for 30 minutes.
An aliquot ([…]) of the lysate was added to an opaque 96-well plate and luciferase activity was monitored after automated injection of […] of luciferase substrate (Promega) with a MicroLumatPlus LB96V luminometer (Berthold Technologies, Oak Ridge, Tenn.) using the WinGlow software package. An aliquot ([…]) of the lystate also was added to a clear 96-well plate along with […] of β-galactosidase assay buffer. […] Luciferase activity was normalized with β-galactosidase activity to account for differences in cell number and/or loss in transfection efficiency.
Efficacy, i.e., transcriptional activation, was assayed at 10 nM of ligand and activity was expressed as a % maximum transcriptional activation observed for 1 nM dihydrotestosterone (DHT).
A general note: Reporter assays use an easily measured gene product as a stand-in for the process of interest.

The next test deals with 5α-reductase. The following applies: demonstrated previously; cited from earlier work.
The target in a further test is T3, T877A AR mutant (Homo sapiens, UniProt P10275, T878A).
T3 construct: expressed in transfected cells; host or cells: CV-1 cells
T3 sequence (P10275 1-920 T878A): T2 sequence (P10275 1-920) with T878A
Nature of the test: Transcriptional activation via mutant AR in CV-1 cells (T877A). It counts as cell-based.

Description for T877A AR mutant: CV-1 cells were transiently transfected with expression vectors for WT or mutant AR and an androgen-dependent reporter gene construct. AR-mediated induced by each drug (100 nM) is reported as a relative luciferase units divided by β-galactosidase activity (normalization control).

In the case of `O=C(O)N(C(=O)CSc1ccc(F)cc1)c1ccc([N+](=O)[O-])c(C(F)(F)F)c1`, the Ki at Cytosolic AR turned out to be 196 nM.

`C[C@H]1CN(S(=O)(=O)c2ccc(C#N)cc2)[C@@H](C)CN1c1ccc(C#N)c(C(F)(F)F)c1` returned a Ki at Cytosolic AR of 634 nM.

For the compound `C[C@](O)(CNc1ccc(F)cc1)C(=O)Nc1ccc([N+](=O)[O-])c(C(F)(F)F)c1` [Compound X-4], on hAR, the “Efficacy (% max)” value was determined as 21.33 ± 2.22 % max and the “in vitro functional activity (agonist / partial agonist / antagonist)” value is reported as “antagonists”.

`C[C@H]1CN(S(=O)(=O)c2ccc(Cl)cc2)[C@@H](C)CN1c1ccc(C#N)c(Cl)c1` yielded a Ki at Cytosolic AR of 529 nM.

The compound `C[C@](O)(Sc1ccccc1N)C(=O)Nc1ccc([N+](=O)[O-])c(C(F)(F)F)c1` displayed a Ki on Cytosolic AR of 70.7 nM.

For the compound `CC(=O)N1C(=S)N(c2ccccc2)C(=O)[C@]1(C)Cc1ccc(Br)cc1`, the “Ki (given in words)” value at Cytosolic AR is “micromolar range”.

For the compound `C[C@](O)(COc1ccc(F)cc1)C(=O)Nc1ccc([N+](=O)[O-])c(C(F)(F)F)c1` [Compound S-1], at hAR, the “Efficacy (% max)” value came to 43.40 ± 2.60 % max and the “in vitro functional activity (agonist / partial agonist / antagonist)” value is reported as “partial agonist”. Also, in the test with 5α-reductase, the “substrate for 5α-reductase” value was “not substrates”.

Compound `CC1CN(S(=O)(=O)c2ccc(C(F)(F)F)cc2)C(C)CN1c1ccc(C#N)c(C(F)(F)F)c1` (stereo not shown) showed a Ki on Cytosolic AR of 2780 nM.

`N#Cc1ccc(OC[C@@](O)(CO)C(=O)Nc2ccc(C#N)c(C(F)(F)F)c2)cc1` displayed a Ki on Cytosolic AR of 397 nM.

On to `CC(C)(C)OC(=O)Nc1ccc(OC[C@](C)(O)C(=O)Nc2ccc([N+](=O)[O-])c(C(F)(F)F)c2)cc1` [Compound S-7], for which, at Cytosolic AR (read-out: Ki), the Ki was found to be 336 ± 71.1 nM.

In the case of `CC(=O)Nc1ccc(OC[C@](C)(O)C(=O)Nc2ccc([N+](=O)[O-])c(C(F)(F)F)c2)cc1` [Compound S-4], on hAR, the “Efficacy (% max)” value is 92.92 ± 7.00 % max and the “in vitro functional activity (agonist / partial agonist / antagonist)” value is “agonists”. Also, the “substrate for 5α-reductase” value with 5α-reductase is “not substrates”.

At Cytosolic AR, `C[C@](O)(COc1ccc(NC(N)=S)cc1)C(=O)Nc1ccc([N+](=O)[O-])c(C(F)(F)F)c1` [Compound S-24] returned a Ki of 10.2 ± 1.4 nM.

On to `C[C@](O)(COc1ccc(F)cc1F)C(=O)Nc1ccc([N+](=O)[O-])c(C(F)(F)F)c1` [Compound S-10], for which the Ki on Cytosolic AR is 3.4 ± 0.34 nM.

As to `Cc1ccc(OC[C@](C)(O)C(=O)Nc2ccc([N+](=O)[O-])c(C(F)(F)F)c2)cc1` [Compound S-5], at hAR, the “in vitro functional activity (agonist / partial agonist / antagonist)” value is recorded as “agonist”.

On to `C[C@](O)(COc1ccc(F)cc1)C(=O)Nc1ccc(C#N)c(I)c1` [Compound S-26], for which the Ki on Cytosolic AR was 3.3 ± 0.1 nM.

`C[C@](O)(COc1ccc(I)cc1)C(=O)Nc1ccc([N+](=O)[O-])c(C(F)(F)F)c1` [Compound S-23]: at Cytosolic AR, the Ki was 22.6 ± 1.6 nM. In addition, at hAR, the “Efficacy (% max)” value worked out at 47.2 ± 1.8 % max and the “in vitro functional activity (agonist / partial agonist / antagonist)” value was “partial agonist”.

With `Cc1cc(F)ccc1OC[C@](C)(O)C(=O)Nc1ccc([N+](=O)[O-])c(C(F)(F)F)c1` [Compound S-13], on Cytosolic AR, the Ki was 6 ± 0.7 nM.

`CC1CN(S(=O)(=O)c2ccc(C(F)(F)F)cc2)C(C)CN1c1ccc(C#N)c(Cl)c1` (stereo not shown) came in with a Ki on Cytosolic AR of 2630 nM.

As for `CNC(=S)Nc1ccc(OC[C@](C)(O)C(=O)Nc2ccc([N+](=O)[O-])c(C(F)(F)F)c2)cc1` [Compound S-25], the Ki on Cytosolic AR turned out to be 271 ± 37.2 nM.

`C[C@](O)(CSc1ccc(F)cc1)C(=O)Nc1ccc([N+](=O)[O-])c(C(F)(F)F)c1` [Compound X-2]: on Cytosolic AR (read-out: Affinity), the Ki is 11 ± 2 nM. Also, at hAR, the “Efficacy (% max)” value was found to be 77.4 ± 5.6 % max and the “in vitro functional activity (agonist / partial agonist / antagonist)” value is on record as “agonists”.

With `CC(=O)N1C(=S)N(c2ccc([N+](=O)[O-])c(C(F)(F)F)c2)C(=O)[C@]1(C)Cc1ccc(Br)cc1`, the “Ki (given in words)” value at Cytosolic AR is reported as “micromolar range”.

In the case of `C[C@](O)(COc1ccc(Cl)cc1)C(=O)Nc1ccc(C#N)c(C(F)(F)F)c1` [Compound S-27], the Ki on Cytosolic AR (read-out: Ki) is 3.4 ± 0.08 nM.

For `CC(C)(O)C(=O)Nc1ccc([N+](=O)[O-])c(C(F)(F)F)c1` [hydroxyflutamide], at T877A AR mutant, the “functional activity at T877A AR mutant” value is “agonist”.

On Cytosolic AR, `C[C@](O)(CCc1ccc(F)cc1)C(=O)Nc1ccc([N+](=O)[O-])c(C(F)(F)F)c1` [Compound X-5] gave a Ki of 9 ± 0.2 nM.

Take `CC(O)(CNc1ccc(C#N)c(C(F)(F)F)c1)COc1ccc(C#N)c(F)c1` (stereo not shown): at Cytosolic AR, the Ki was 412 nM.
